According to publication PMC11484942, “Rumicidins are a family of mammalian host-defense peptides plugging the 70S ribosome exit tunnel” (Nature Communications, 2024):
Like-named read-outs stand apart in the source and are kept apart here. Bridge positions count the residues as written; N and C are the ends. Square brackets hold non-standard residues; d marks the D form. Ends that are not written are not given here. Peptide text beside a SMILES is read from it. * marks the point of attachment. X1 = CC[C@H](C)CCCCC(=O)*; Dab = NCC[C@H](N)C(=O)O

What was measured:
E. coli 1057 = test: Serial passage resistance induction; type: cell-based, Escherichia coli; conditions: serial passages, both media (MHB ±0.9%NaCl)
Experimental: Resistance induction experiments were performed using the previously described method. This approach allows for monitoring MIC values after each transfer. […] After incubation for 20 ± 2 h at 37 °C and 950 rpm, MICs were determined as described above. For each subsequent daily transfer, 2–4 μL of the inoculum taken from the first well containing a sub-inhibitory drug concentration was diluted with 2 mL of the fresh 2× MHB supplemented with 1.8% NaCl (or without salt). […] Multiple repeated passages in the presence of antimicrobial agents were performed for each bacterial strain during the experiment. Bacteria that grew at the highest concentrations of AMPs on the final day were passaged further 3 times on drug-free agar plates before determining the final MIC value.

[1] = tested on: E. coli 1057 R2 (rpoS^Q3stop, macB^N470D); conditions: MHB + 0.9% NaCl
Experimental: Minimum inhibitory concentrations (MIC) were determined by broth microdilution assay based on Clinical and Laboratory Standards Institute (CLSI) guidelines using BSA in the growth medium to minimize AMP nonspecific adsorption. Bacterial test cultures were grown in the Mueller-Hinton broth (MHB, Sigma) at 37 °C to mid-log phase and then diluted with the 2× MH medium supplemented with 1.8% NaCl (or without salt) so that to reach a final cell concentration of 10^6 CFU/mL. 50 µL of the obtained bacterial suspension were added to aliquots of 50 µL of the peptide solutions serially diluted with sterilized 0.1% bovine serum albumin (BSA) in 96-well flat-bottom polystyrene microplates (Eppendorf #0030730011). […] To verify MIC values, the respiratory activity of the bacteria was determined. Briefly, 5 µL of 0.5 mg/mL resazurin (Sigma) was added to the wells after 24 h (or after 48 h for M. smegmatis) of incubation, and the plate was incubated for additional 3 h. In some cases, MICs were determined in the Lysogeny Broth (LB) or Middlebrook 7H9 medium. The reduction of resazurin to resorufin was recorded. […] The results were expressed as the median values determined based on at least three independent experiments performed in triplicate.
Resistance induction experiments were performed using the previously described method. This approach allows for monitoring MIC values after each transfer. Briefly, on the first day, the overnight culture of the wild-type bacteria was diluted with the 2× MHB supplemented with 1.8% NaCl (or without salt) to reach a final cell concentration of 10^6 CFU/mL. 50 µL of the obtained bacterial suspension were added to aliquots of 50 µL of the peptide solutions serially diluted with the sterilized 0.1% BSA in 96-well flat-bottom polystyrene microplates. After incubation for 20 ± 2 h at 37 °C and 950 rpm, MICs were determined as described above. For each subsequent daily transfer, 2–4 μL of the inoculum taken from the first well containing a sub-inhibitory drug concentration was diluted with 2 mL of the fresh 2× MHB supplemented with 1.8% NaCl (or without salt). […] Multiple repeated passages in the presence of antimicrobial agents were performed for each bacterial strain during the experiment. Bacteria that grew at the highest concentrations of AMPs on the final day were passaged further 3 times on drug-free agar plates before determining the final MIC value.

E. coli 1057 WT = test: microbe, parasite or virus in culture; type: cell-based, Escherichia coli; conditions: MHB + 0.9% NaCl
Experimental: Minimum inhibitory concentrations (MIC) were determined by broth microdilution assay based on Clinical and Laboratory Standards Institute (CLSI) guidelines using BSA in the growth medium to minimize AMP nonspecific adsorption[49]. Bacterial test cultures were grown in the Mueller-Hinton broth (MHB, Sigma) at 37 °C to mid-log phase and then diluted with the 2× MH medium supplemented with 1.8% NaCl (or without salt) so that to reach a final cell concentration of 10^6 CFU/mL. 50 µL of the obtained bacterial suspension were added to aliquots of 50 µL of the peptide solutions serially diluted with sterilized 0.1% bovine serum albumin (BSA) in 96-well flat-bottom polystyrene microplates (Eppendorf #0030730011). […] To verify MIC values, the respiratory activity of the bacteria was determined. Briefly, 5 µL of 0.5 mg/mL resazurin (Sigma) was added to the wells after 24 h (or after 48 h for M. smegmatis) of incubation, and the plate was incubated for additional 3 h. In some cases, MICs were determined in the Lysogeny Broth (LB) or Middlebrook 7H9 medium. The reduction of resazurin to resorufin was recorded. […] The results were expressed as the median values determined based on at least three independent experiments performed in triplicate.

[2] = tested on: E. coli BW25113 ΔtolC pDualrep2; test: pDualrep2 double-reporter assay; type: cell-based, Escherichia coli; conditions: agar plate, overnight 37 °C
Experimental: For in vivo bioactivity test, the reporter strain BW25113 ΔtolC-pDualrep2 was used as previously described. Briefly, 10 µL of solutions of tested peptides (0.2 mM of full-length rumicidin isoforms; 0.5 mM of Rum-1[1-22] and Rum-1[9-29]) were applied to an agar plate contained a lawn of the reporter strain. 5 mg/ml erythromycin (Ery, 1 µL) and 25 µg/ml levofloxacin (Lev, 1 µL) solutions were used as control samples. After being incubated overnight at 37 °C, the plate was scanned by ChemiDoc (Bio-Rad) using “Cy3-blot” settings for RFP and “Cy5-blot” for the Katushka2S protein. At least, two independent experiments were performed, and the observed effects were the same.

70S initiation complexes = test: Peptide bond formation (fMet-[14C]Val dipeptide); type: biochemical; conditions: 30 µM amicoumacin A; 2 min 37 °C; three replicates; intact complexes 77 ± 5%
Experimental: Initiation complexes and ternary complexes were prepared as described previously[21],[59]. Where necessary initiation complexes were supplemented with rumicidin-1 (1 μM) or amicoumacin A (30 μM) followed by additional incubation for 5 min at 37 °C. To analyze formation of dipeptide fMet-Val, 0.2 μM 70S initiation complexes containing fMet-tRNA^fMet in the P site were mixed with 0.375 μM ternary complexes EF-Tu⋅GTP⋅[^14C]Val-tRNA^Val (444 dpm/pmol) and incubated for 2 min at 37 °C. Then samples were quenched with 1/10 volume of 5 M KOH and hydrolyzed for 30 min at 37 °C. Samples were neutralized with 1/10 volume of glacial acetic acid and analyzed by reversed-phase HPLC on RP8 (Merck) with an acetonitrile gradient in 0.1% trifluoroacetic acid. Percentage of synthesized dipeptide was determined by incorporation of the radioactive label as a ratio of peptide formed to the amount of the 70S ribosomes in the reaction mixture, as described earlier. Experiments were done in three replicates.

[3] = tested on: human red blood cells (hRBC); test: Hemolysis (hemoglobin release assay); type: cell-based; conditions: mean
Experimental: (§1) Hemolytic activity of the peptides was tested against the fresh suspension of human red blood cells (hRBC) using the hemoglobin release assay as described previously. Two experiments were performed with the hRBC from blood samples collected from healthy donors by certified medical personnel upon informed written consent. All procedures were approved by the Ethics Committee of the Institute of Experimental Medicine (protocol 1/20 of 2/27/2020) and comply with the ethical principles of the Declaration of Helsinki. The quantitative data were represented as average means with standard deviations. The colorimetric 3-(4,5-dimethylthiazol-2-yl)-2,5-diphenyltetrazolium bromide (MTT) dye reduction assay was used to determine cytotoxicity of the peptides against human keratinocyte cell line (HaCaT) and transformed human embryonic kidney cells (HEK293T). Both cell lines were purchased from American Type Culture Collection (ATCC). 10^4 cells per well in Dulbecco’s modified Eagle’s medium (DMEM/F12) supplemented with 10% fetal bovine serum (FBS, Invitrogen) were placed into 96-well plates and then cultured in the CO2-incubator (5% CO2, 37 °C). After the media were removed, the peptides were dissolved in 100 µL of the same medium and added to cell cultures at different final concentrations. 20 h later, 20 μL of MTT (5 mg/mL, Sigma) was added to each well, and the plates were incubated for 4 h at 37 °C. Then, the media were discarded and 100 µL DMSO-isopropanol mixture at a ratio of 1:1 (v/v) was added to each well to dissolve the crystallized formazan. The absorbance at 570 nm was measured by a microplate reader AF2200 (Eppendorf). An optical density in the wells containing cells cultured without the peptides was assumed to represent 100% cell viability. Two independent experiments were performed for each peptide.

E. coli BW25113 = test: MIC broth microdilution; type: cell-based, Escherichia coli; conditions: 24 h 37 °C, median of ≥3 experiments; for Minimum inhibitory concentration MHB: Mueller-Hinton broth without salt
Experimental: (§2) The reduction of resazurin to resorufin was recorded.

[4] = tested on: HEK293T (transformed embryonic kidney cells); test: MTT cytotoxicity; type: cell-based, human; conditions: mean
Experimental: as §1

HaCaT (keratinocytes) = test: MTT cytotoxicity; type: cell-based, human
Experimental: as §1

[5] = tested on: Mycobacterium smegmatis mc(2)155; type: cell-based; conditions: Mycobacterium mc(2)155, 24 h
Experimental: as §2

S. aureus ATCC 29213 = type: cell-based, Staphylococcus aureus; conditions: ATCC 29213, 24 h
Experimental: as §2

E. coli BW25113 ΔsbmA = type: cell-based, Escherichia coli
Experimental: as §2

E. coli = type: cell-based, Escherichia coli
Source text: of bacterial cells washed with sodium phosphate buffer, whereas the addition of 0.9% NaCl and/or divalent cations minimized or even abolished the activity (Supplementary Fig. 14). The same was true for Bac7[1-22] in most cases (Supplementary Fig. 14), except for the maximum […]
“NaPB + 0.9% NaCl”), at which significant outer membrane damage was observed. Thus, in the context of the host immune system operating in a complex environment containing NaCl and divalent cations, the most likely scenario is that rumicidin's ability to disrupt the integrity of the outer membrane is suppressed. Antibacterial activity of rumicidin-1 is inhibited in the presence […]
mixture, respectively), and the electrical double layer around the cell seems to be a key barrier on the way into the cell of highly charged and relatively hydrophilic PrAMP. Perhaps, translocation of rumicidin-1 into the periplasmic space depends on electrostatic interaction with the outer membrane followed by porin-mediated uptake (the gene knockout of ompF resulted in a 4-fold increase in MIC, Fig. 5a). […]
Fig. 4), (iv) experiments on inhibition of peptide bond formation Supplementary Fig. 5, and (v) structural studies of the rumicidin complex with the ribosome by Cryo-EM (Fig.4).
Point 2. Authors claim that the effect of these peptides on membrane integrity may be due to the presence of aromatic Trp and Phe residues in their structure. However, effect of the rumicidin-1 variant W23A,F24A is not shown.
To fill this gap, we performed a comparative analysis of the ability of rumicidin-1 and its analogue [W23A,F24A] to increase the permeability of E. coli membranes under different environmental conditions. In all cases in the […]

E. cloacae XDR CI 4172 = type: cell-based, Enterobacter cloacae; conditions: XDR CI 4172, 24 h
Experimental: as §2

## CC[C@H](C)CCCCC(=O)N[C@@H](CCN)C(=O)N[C@H](C(=O)N[C@@H](CCN)C(=O)N[C@H]1CCNC(=O)[C@H]([C@@H](C)O)NC(=O)[C@H](CCN)NC(=O)[C@H](CCN)NC(=O)[C@H](CC(C)C)NC(=O)[C@@H](Cc2ccccc2)NC(=O)[C@H](CCN)NC1=O)[C@@H](C)O [Polymyxin B] (X1-[Dab]T[Dab][Dab][Dab][dF]L[Dab][Dab]T; lactam 4-C (inferred); N-terminus assumed)
E. coli 1057
  fold increase in MIC values under selection: 128 fold
[1]
  MIC: 4 µM
E. coli 1057 WT
  MIC: 0.062 µM

## CC[C@H]1OC(=O)[C@H](C)[C@@H](O[C@H]2C[C@@](C)(OC)[C@@H](O)[C@H](C)O2)[C@H](C)[C@@H](O[C@@H]2O[C@H](C)C[C@H](N(C)C)[C@H]2O)[C@](C)(O)C[C@@H](C)C(=O)[C@H](C)[C@@H](O)[C@]1(C)O [Erythromycin]
[2]
  reporter induction: strongly induced biosynthesis of Katushka2S, but not of RFP
E. coli 1057 WT; Escherichia coli, 1057WT, 24 h
  MIC: 1020 µM

## CC(C)C[C@H](NC(=O)[C@@H](O)[C@@H](O)[C@@H](N)CC(N)=O)[C@@H]1Cc2cccc(O)c2C(=O)O1 [amicoumacin A]
70S initiation complexes
  fMet-[14C]Val dipeptide formed: 72 ± 7%

## RARRPRPPKPRPPHRPRPRPRPWFPPRFP [Rumicidin-1]
[3]; 0.25 µM
  Hemolysis: 0.134%
[3]; 0.5 µM
  Hemolysis: 0.357%
[3]; 1 µM
  Hemolysis: 0.408%
[3]; 2 µM
  Hemolysis: 0.624%
[3]; 4 µM
  Hemolysis: 0.667%
[3]; 8 µM
  Hemolysis: 0.801%
[3]; 16 µM
  Hemolysis: 0.83%
[3]; 32 µM
  Hemolysis: 0.911%
[3]; 64 µM
  Hemolysis: 0.932%
E. coli BW25113; Mueller-Hinton broth + 0.9% NaCl, listed as WT
  Minimum inhibitory concentration MHB + 0.9% NaCl: 4 to 8 µM
E. coli BW25113
  Minimum inhibitory concentration MHB: 1 µM
E. coli BW25113; listed as WT
  Minimum inhibitory concentration MHB: 2 µM
[4]; 1 µM
  HEK293T cell viability: 105.704%
[4]; 2 µM
  HEK293T cell viability: 104.142%
[4]; 4 µM
  HEK293T cell viability: 106.626%
[4]; 8 µM
  HEK293T cell viability: 103.664%
[4]; 16 µM
  HEK293T cell viability: 105.32%
[4]; 32 µM
  HEK293T cell viability: 89.704%
[4]; 64 µM
  HEK293T cell viability: 72.479%
HaCaT (keratinocytes); 1 µM
  HaCaT cell viability: 104.258%
HaCaT (keratinocytes); 2 µM
  HaCaT cell viability: 105.615%
HaCaT (keratinocytes); 4 µM
  HaCaT cell viability: 107.778%
HaCaT (keratinocytes); 8 µM
  HaCaT cell viability: 104.973%
HaCaT (keratinocytes); 16 µM
  HaCaT cell viability: 107.318%
HaCaT (keratinocytes); 32 µM
  HaCaT cell viability: 107.645%
HaCaT (keratinocytes); 64 µM
  HaCaT cell viability: 99.839%
[5]
  MICs depending on the test medium: 0.125 to 0.5 µM
S. aureus ATCC 29213
  MIC S. aureus ATCC 29213: > 32 µM
E. coli BW25113 ΔsbmA; MHB + 0.9% NaCl
  MIC: ≥ 64 µM
E. coli BW25113 ΔsbmA; salt-free MHB
  MIC: 1 µM
E. coli; MH medium with NaCl
  MIC: 4 µM
E. coli; MH medium with NaCl and divalent cations (mixture)
  MIC: 16 to 32 µM
E. coli; MH medium with divalent cations
  MIC: 8 µM
E. coli; salt-free MH medium
  MIC: 1 µM
E. cloacae XDR CI 4172
  MIC E. cloacae XDR CI 4172: 2 µM
